Measurements taken from PubChem BioAssay AID2060885 (Molecular Pharmacology Branch, DTP, NCI, 2025).

Tested on: NCI-H23 complex spheroids with HUVEC/MSC, viability
Test: Anticancer human tumor NCI-H23 cell line growth inhibition [RAS];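 further: spheroids exposed to compound for 7 days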;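 on viability, T/C: 100% = DMSO vehicle control viability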
Settings: for IC50: curve of first compound; for viability, T/C: stronger effect = lower value; active means viability on the fitted dose curve at most 10% of control; inactive means the rest
Method in brief: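 Multi-cell-type spheroids: tumor cells plus HUVEC endothelial cells and mesenchymal stem cells. RAS-pathway inhibitors were combined with targeted agents, each dosed in half-log steps down from clinical Cmax, or from 10 microM when Cmax was unknown.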

[1] = second compound 0.000949 µM, first compound 0.00316 µM
[2] = second compound 0.000949 µM, first compound 0.01 µM
[3] = second compound 0.000949 µM, first compound 0.0316 µM
[4] = second compound 0.000949 µM, first compound 0.1 µM
[5] = second compound 0.000949 µM, first compound 0.316 µM
[6] = second compound 0.000949 µM, first compound 1 µM
[7] = second compound 0.003 µM, first compound 0.00316 µM
[8] = second compound 0.003 µM, first compound 0.01 µM
[9] = second compound 0.003 µM, first compound 0.0316 µM
[10] = second compound 0.003 µM, first compound 0.1 µM
[11] = second compound 0.003 µM, first compound 0.316 µM
[12] = second compound 0.003 µM, first compound 1 µM
[13] = second compound 0.00949 µM, first compound 0.00316 µM
[14] = second compound 0.00949 µM, first compound 0.01 µM
[15] = second compound 0.00949 µM, first compound 0.0316 µM
[16] = second compound 0.00949 µM, first compound 0.1 µM
[17] = second compound 0.00949 µM, first compound 0.316 µM
[18] = second compound 0.00949 µM, first compound 1 µM
[19] = second compound 0.03 µM, first compound 0.00316 µM
[20] = second compound 0.03 µM, first compound 0.01 µM
[21] = second compound 0.03 µM, first compound 0.0316 µM
[22] = second compound 0.03 µM, first compound 0.1 µM
[23] = second compound 0.03 µM, first compound 0.316 µM
[24] = second compound 0.03 µM, first compound 1 µM
[25] = second compound 0.0949 µM, first compound 0.00316 µM
[26] = second compound 0.0949 µM, first compound 0.01 µM
[27] = second compound 0.0949 µM, first compound 0.0316 µM
[28] = second compound 0.0949 µM, first compound 0.1 µM
[29] = second compound 0.0949 µM, first compound 0.316 µM
[30] = second compound 0.0949 µM, first compound 1 µM
[31] = second compound 0.3 µM, first compound 0.00316 µM
[32] = second compound 0.3 µM, first compound 0.01 µM
[33] = second compound 0.3 µM, first compound 0.0316 µM
[34] = second compound 0.3 µM, first compound 0.1 µM
[35] = second compound 0.3 µM, first compound 0.316 µM
[36] = second compound 0.3 µM, first compound 1 µM
[37] = second compound 0.000949 µM, first compound 3.16 µM
[38] = second compound 0.000949 µM, first compound 10 µM
[39] = second compound 0.003 µM, first compound 3.16 µM
[40] = second compound 0.003 µM, first compound 10 µM
[41] = second compound 0.00949 µM, first compound 3.16 µM
[42] = second compound 0.00949 µM, first compound 10 µM
[43] = second compound 0.03 µM, first compound 3.16 µM
[44] = second compound 0.03 µM, first compound 10 µM
[45] = second compound 0.0949 µM, first compound 3.16 µM
[46] = second compound 0.0949 µM, first compound 10 µM
[47] = second compound 0.3 µM, first compound 3.16 µM
[48] = second compound 0.3 µM, first compound 10 µM

C=CC(=O)Nc1cc(Nc2nccc(-c3cn(C)c4ccccc34)n2)c(OC)cc1N(C)CCN(C)C + CCn1c(-c2cc(N3CCN(C)CC3)cnc2C(C)OC)c2c3cc(ccc31)-c1csc(n1)CC(NC(=O)C1CC1C)C(=O)N1CCCC(N1)C(=O)OCC(C)(C)C2
inactive: viability, T/C [1] 51.5% | viability, T/C [2] 45.7% | viability, T/C [3] 34.4% | viability, T/C [4] 50.4% | viability, T/C [5] 31.4% | viability, T/C [6] 27.6% | viability, T/C [7] 35.8% | viability, T/C [8] 32.6% | viability, T/C [9] 30.1% | viability, T/C [10] 29.8% | viability, T/C [11] 27.1% | viability, T/C [12] 19% | viability, T/C [13] 30.7% | viability, T/C [14] 27.9% | viability, T/C [15] 29.3% | viability, T/C [16] 25.4% | viability, T/C [17] 22.1% | viability, T/C [18] 15.6% | viability, T/C [19] 27.5% | viability, T/C [20] 23.6% | viability, T/C [21] 29.1% | viability, T/C [22] 25% | viability, T/C [23] 17.5% | viability, T/C [24] 15% | viability, T/C [25] 18.7% | viability, T/C [26] 19.6% | viability, T/C [27] 22.2% | viability, T/C [28] 16.4% | viability, T/C [29] 8.97% | viability, T/C [30] 12.2% | viability, T/C [31] 16.5% | viability, T/C [32] 18.1% | viability, T/C [33] 17.2% | viability, T/C [34] 12.3% | viability, T/C [35] 10.5% | viability, T/C [36] 11.8%
< 3.16 nM: IC50 (second compound 0.000949 µM) | IC50 (second compound 0.003 µM) | IC50 (second compound 0.00949 µM) | IC50 (second compound 0.03 µM) | IC50 (second compound 0.0949 µM) | IC50 (second compound 0.3 µM)

CC(C)NCC(C(=O)N1CCN(c2ncnc3c2C(C)CC3O)CC1)c1ccc(Cl)cc1 (stereo not drawn) + CCn1c(-c2cc(N3CCN(C)CC3)cnc2C(C)OC)c2c3cc(ccc31)-c1csc(n1)CC(NC(=O)C1CC1C)C(=O)N1CCCC(N1)C(=O)OCC(C)(C)C2
inactive: viability, T/C [3] 44% | viability, T/C [4] 47.4% | viability, T/C [5] 32.9% | viability, T/C [6] 34.7% | viability, T/C [37] 26.2% | viability, T/C [38] 15.2% | viability, T/C [9] 37.9% | viability, T/C [10] 27.3% | viability, T/C [11] 24.2% | viability, T/C [12] 22.6% | viability, T/C [39] 22% | viability, T/C [40] 13.8% | viability, T/C [15] 30.8% | viability, T/C [16] 31.7% | viability, T/C [17] 30.4% | viability, T/C [18] 22.2% | viability, T/C [41] 17.1% | viability, T/C [42] 10.4% | viability, T/C [21] 29.5% | viability, T/C [22] 23.8% | viability, T/C [23] 21.5% | viability, T/C [24] 19.6% | viability, T/C [43] 12.1% | viability, T/C [44] 12.1% | viability, T/C [27] 18.6% | viability, T/C [28] 18.6% | viability, T/C [29] 17.8% | viability, T/C [30] 17.4% | viability, T/C [45] 10.3% | viability, T/C [46] 9.96% | viability, T/C [33] 18.1% | viability, T/C [34] 15.7% | viability, T/C [35] 14.9% | viability, T/C [36] 10.6% | viability, T/C [47] 9.62%
< 31.6 nM: IC50 (second compound 0.000949 µM) | IC50 (second compound 0.003 µM) | IC50 (second compound 0.00949 µM) | IC50 (second compound 0.03 µM) | IC50 (second compound 0.0949 µM) | IC50 (second compound 0.3 µM)
active: viability, T/C [48] 9.02%

CC(Nc1ccc2c(c1)OCCn1cc(N3C(=O)OCC3C(F)F)nc1-2)C(N)=O (stereo not drawn) + CCn1c(-c2cc(N3CCN(C)CC3)cnc2C(C)OC)c2c3cc(ccc31)-c1csc(n1)CC(NC(=O)C1CC1C)C(=O)N1CCCC(N1)C(=O)OCC(C)(C)C2
inactive: viability, T/C [3] 38.9% | viability, T/C [4] 34.7% | viability, T/C [5] 29.4% | viability, T/C [6] 35.1% | viability, T/C [37] 33.6% | viability, T/C [38] 21.6% | viability, T/C [9] 34.9% | viability, T/C [10] 24.6% | viability, T/C [11] 25.3% | viability, T/C [12] 25.1% | viability, T/C [39] 23.1% | viability, T/C [40] 17.6% | viability, T/C [15] 31.1% | viability, T/C [16] 24.5% | viability, T/C [17] 21.1% | viability, T/C [18] 22.5% | viability, T/C [41] 23.3% | viability, T/C [42] 16.7% | viability, T/C [21] 25.5% | viability, T/C [22] 19.6% | viability, T/C [23] 19% | viability, T/C [24] 19.2% | viability, T/C [43] 13.9% | viability, T/C [44] 14.5% | viability, T/C [27] 16.9% | viability, T/C [28] 14.9% | viability, T/C [29] 13.6% | viability, T/C [30] 15.2% | viability, T/C [45] 10% | viability, T/C [46] 10.8% | viability, T/C [33] 14% | viability, T/C [34] 13.3% | viability, T/C [35] 12.8% | viability, T/C [36] 13% | viability, T/C [47] 11.9% | viability, T/C [48] 11.4%
< 31.6 nM: IC50 (second compound 0.000949 µM) | IC50 (second compound 0.003 µM) | IC50 (second compound 0.00949 µM) | IC50 (second compound 0.03 µM) | IC50 (second compound 0.0949 µM) | IC50 (second compound 0.3 µM)

O=C(c1ccc(F)c(F)c1Nc1ccc(I)cc1F)N1CC(O)([C@@H]2CCCCN2)C1 + CCn1c(-c2cc(N3CCN(C)CC3)cnc2C(C)OC)c2c3cc(ccc31)-c1csc(n1)CC(NC(=O)C1CC1C)C(=O)N1CCCC(N1)C(=O)OCC(C)(C)C2
inactive: viability, T/C [1] 40.8% | viability, T/C [2] 42.1% | viability, T/C [3] 30.3% | viability, T/C [4] 27.7% | viability, T/C [5] 14.7% | viability, T/C [7] 31.5% | viability, T/C [8] 33.4% | viability, T/C [9] 22.9% | viability, T/C [10] 20.1% | viability, T/C [11] 10.2% | viability, T/C [13] 33.3% | viability, T/C [14] 20.2% | viability, T/C [15] 19% | viability, T/C [16] 10.2% | viability, T/C [19] 24% | viability, T/C [20] 15.2% | viability, T/C [21] 10.5% | viability, T/C [25] 16.1% | viability, T/C [26] 11.9% | viability, T/C [31] 12.4%
< 3.16 nM: IC50 (second compound 0.000949 µM) | IC50 (second compound 0.003 µM) | IC50 (second compound 0.00949 µM) | IC50 (second compound 0.03 µM) | IC50 (second compound 0.0949 µM) | IC50 (second compound 0.3 µM)
active: viability, T/C [6] 7.09% | viability, T/C [12] 5.97% | viability, T/C [17] 5.94% | viability, T/C [18] 5.43% | viability, T/C [22] 7.97% | viability, T/C [23] 5.26% | viability, T/C [24] 5.71% | viability, T/C [27] 8.79% | viability, T/C [28] 6.35% | viability, T/C [29] 5.88% | viability, T/C [30] 5.06% | viability, T/C [32] 9.36% | viability, T/C [33] 8.61% | viability, T/C [34] 5.57% | viability, T/C [35] 5.66% | viability, T/C [36] 6.36%
